Source: US20170202973A1 (GENENTECH, INC., priority 2009, published 2017)
Where two headings read alike, the source gives them in different places.

How the values were obtained:
[1] = cited from earlier work
[2] = system: HER2-positive metastatic breast cancer; conditions: for Patients Censored, % / Patients Censored, number / Patients Progressed, % / Patients Progressed, number: PFS analysis; for CR / Clinical Benefit Rate / Missing tumor response / Objective Response Rate, % / PD / PR / UE: N = 110, updated analysis
Method: The analysis of objective response rate was conducted with patient data collected through approximately 26 weeks after the last patient is enrolled in the study. This study enrolled patients with HER2-positive MBC. […] Patients will be required to have HER2-positive status, as evidenced by either 3+ HER2 protein overexpression determined by immunohistochemistry (IHC) or HER2 gene amplification determined by FISH.
Efficacy Assessments: Tumor responses were categorized as complete response (CR), partial response (PR), stable disease (SD), or progressive disease (PD) according to the Response Evaluation Criteria for Solid Tumors (RECIST). Tumor assessments (CT and/or magnetic resonance imaging [MRI] scans) were performed approximately every 6 weeks irrespective of dose delays, interruptions, or reductions. Bone and brain scans (either CT or Mill) were performed at baseline and if clinically indicated during the study. Patient management decisions were made based on tumor assessments performed by investigators. The primary study endpoints related to response were determined by an independent radiologic review of patient scans, with assessments based on investigator reporting being secondary. If each non-target lesion cannot be assessed at a follow-up tumor assessment timepoint, patients may still be considered evaluable for timepoint response as long as all target lesions are measured. Patients with non-target lesions that were not assessed at a timepoint were assessed as having a partial response, stable disease, or progressive disease. All lesions, target and non-target, were assessed before a response was considered confirmed. To reduce the frequency of unevaluable non-target lesions, bone lesions visible on baseline CT scan as non-target lesion(s) for follow-up, were compared with bone lesions identified on the baseline bone scan where possible if lesions are not visible on both modalities or as easily and reproducibly assessed.
Efficacy Assessments: An assessment of the objective response rate, the primary objective of this trial, was based on the RECIST and confirmed by independent review of baseline and follow-up assessments obtained every 6 weeks. All known sites of disease should be reassessed at each timepoint whenever possible. Because bone involvement is a common finding in patients with MBC, a bone scan at baseline may be conducted. In addition, patients with non-target lesions that were not assessed at a timepoint were assessed as having a partial response, stable disease, or progressive disease. All lesions, target and non-target (including bone lesions), were assessed before a complete response can be considered confirmed.
Efficacy Outcome Measures: The primary efficacy outcome measure is objective response (defined as a complete or partial response determined on two consecutive occasions 4 weeks apart), as assessed through independent radiologic review using RECIST. The secondary efficacy outcome measures are as follows: Duration of objective response, as assessed through independent radiologic review using RECIST; PFS, as assessed through independent radiologic review using RECIST; CBR based on independent radiologic review using RECIST; Objective response based on investigator assessments using RECIST; Duration of objective response based on investigator assessments using RECIST; PFS based on investigator assessments using RECIST; and CBR based on investigator assessments using RECIST.
The analysis of objective response rate was conducted with patient data collected through approximately 26 weeks after the last patient was enrolled in the study. In addition, the final analysis of safety and all secondary and exploratory endpoints will be updated with sufficient data when available (estimated to be approximately 10 months after the last patient is enrolled in the study). After the final analysis, the study was closed. […] This study enrolled patients with HER2-positive MBC.

[3] = Investigator, N = 110, initial analysis
[4] = Patients with HER2+ retrospectively confirmed, n = 76, INV, initial analysis
[5] = Patients with HER2+ retrospectively confirmed, n = 76, IRF, initial analysis
[6] = Patients with HER2+ retrospectively confirmed, n = 80, INV, updated analysis
[7] = Patients with HER2+ retrospectively confirmed, n = 80, IRF, updated analysis
[8] = Patients with HER2 normal, n = 15, INV, initial analysis
[9] = Patients with HER2 normal, n = 15, IRF, initial analysis
[10] = of 110 treated, 70 discontinued, data cutoff

For `COc1cc2cc(c1Cl)N(C)C(=O)C[C@H](OC(=O)[C@H](C)N(C)C(C)=O)[C@]1(C)O[C@H]1[C@H](C)[C@@H]1C[C@@](O)(NC(=O)O1)[C@H](OC)/C=C/C=C(\C)C2` [maytansine], the “dose-limiting toxicity (DLT)” value ([1]; approximately 800 patients, 2.0 mg/m^2 every 3 weeks, single dose or 3 consecutive days) is given as “gastrointestinal” and the “activity in the clinic” value ([1]; at doses that could be safely delivered) is given as “modest”.
With trastuzumab-MCC-DM1 [T-DM1] the “Patients Censored, %” value ([2]; INV, all treated patients) was 45.5%, the “Patients Censored, number” value ([2]; INV, all treated patients) was 50 patients and the “Patients Progressed, %” value ([2]; INV, all treated patients) was 54.5%. The “Patients Progressed, number” value ([2]; INV, all treated patients) was 60 patients, the “PFS (months) 25-75%” value ([2]; INV, all treated patients) was 2.8-11.1 months and the “Missing tumor response, %” value ([2]; IRF, N = 110, initial analysis) was “(0.9%)”. The “PD, %” value ([2]; IRF, N = 110, initial analysis) was “(18.2%)”, the “PR, %” value ([2]; IRF, N = 110, initial analysis) was “(32.7%)” and the “UE, %” value ([2]; IRF, N = 110, initial analysis) was “(1.8%)”. The CR ([2]; IRF) was 0%, the “Clinical Benefit Rate” value ([2]; IRF) was 48.2% and the Missing tumor response ([2]; IRF) was 0.9%. For the same compound, the “Objective Response Rate, %” value ([2]; IRF) was 34.5%, the PD ([2]; IRF) was 18.2% and the PR ([2]; IRF) was 34.5%. For the same compound, the UE ([2]; IRF) was 1.8%, the “Patients Censored, %” value ([2]; IRF, all treated patients) was 54.5% and the “Patients Censored, number” value ([2]; IRF, all treated patients) was 60 patients. For the same compound, the “Patients Progressed, %” value ([2]; IRF, all treated patients) was 45.5%, the “Patients Progressed, number” value ([2]; IRF, all treated patients) was 50 patients and the “PFS (months) 25-75%” value ([2]; IRF, all treated patients) was 2.6-9.7 months. The “PFS (months) median” value ([2]; IRF, all treated patients, initial analysis) was 7.3 months, the “median PFS” value ([2]; IRF, updated analysis, all treated patients, 95% CI (4.2-8.4)) was 6.9 and the “CR, %” value [2, 3] was “(1.8%)”. The “Missing tumor response, %” value [2, 3] was “(2.7%)”, the “PD, %” value [2, 3] was “(13.6%)” and the “PR, %” value [2, 3] was “(28.2%)”. The “UE, %” value [2, 3] was “(0.9%)”, the CR ([2]; Investigator) was 4.5% and the “Clinical Benefit Rate” value ([2]; Investigator) was 46.4%. For the same compound, the Missing tumor response ([2]; Investigator) was 0.9%, the “Objective Response Rate, %” value ([2]; Investigator) was 32.7% and the PD ([2]; Investigator) was 14.5%. The PR ([2]; Investigator) was 28.2%, the UE ([2]; Investigator) was 0.9% and the “Clinical benefit rate, %” value [2, 4] was 47.4%. The “ORR, %” value [2, 4] was 36.8%, the “Clinical benefit rate, %” value [2, 5] was 52.6% and the “ORR, %” value [2, 5] was 39.5%. For the same compound, the “Clinical benefit rate, %” value [2, 6] was “(53.8%)”, the “ORR, %” value [2, 6] was “(40.0%)” and the “Clinical benefit rate, %” value [2, 7] was “(55.0%)”. For the same compound, the “ORR, %” value [2, 7] was “(41.3%)”, the “Clinical benefit rate, %” value [2, 8] was 20.0% and the “ORR, %” value [2, 8] was 13.3%. The “Clinical benefit rate, %” value [2, 9] was 26.7%, the “ORR, %” value [2, 9] was 20.0% and the “patients that discontinued treatment with progressive disease, %” value [2, 10] was 52.7%. The “patients that discontinued treatment with progressive disease, number” value [2, 10] was 58 patients.
